The values below come from ChEMBL document CHEMBL4196240, “Structurally Diverse Sesquiterpenoids from the Endangered Ornamental Plant Michelia shiluensis” (J Nat Prod, 2018).

Test [1] addresses T1, Tyrosine-protein phosphatase non-receptor type 1 (Homo sapiens, UniProt P18031).
T1 sequence (P18031 whole entry): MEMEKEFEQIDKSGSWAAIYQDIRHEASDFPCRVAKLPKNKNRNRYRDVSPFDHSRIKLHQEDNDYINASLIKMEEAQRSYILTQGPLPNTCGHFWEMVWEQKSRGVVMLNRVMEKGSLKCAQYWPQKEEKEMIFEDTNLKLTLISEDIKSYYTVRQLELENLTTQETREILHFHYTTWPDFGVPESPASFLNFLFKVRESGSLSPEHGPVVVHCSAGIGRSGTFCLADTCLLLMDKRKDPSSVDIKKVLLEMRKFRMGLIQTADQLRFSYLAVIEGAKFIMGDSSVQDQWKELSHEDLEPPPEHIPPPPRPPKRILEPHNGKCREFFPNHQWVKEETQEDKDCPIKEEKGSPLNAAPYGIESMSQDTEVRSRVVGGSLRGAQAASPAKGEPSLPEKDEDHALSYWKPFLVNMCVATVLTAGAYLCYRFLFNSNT
Kind of test: Inhibition of recombinant human GST-tagged PTP1B catalytic domain using para-nitrophenyl phosphate as substrate.

The test system of a further test is A549. Kind of test: Cytotoxicity against human A549 cells after 24 hrs by MTS assay. The test is classed as functional, cell-based. Conditions: A549, 24 h. On the technique in general: Tetrazolium dyes change colour on reduction, which living cells bring about.
The subject of another test is MCF7. Kind of test: Cytotoxicity against human MCF7 cells after 24 hrs by MTS assay. The conditions noted are these: MCF7, 24 h. The test is classed as functional, cell-based.

`CC(=O)CC[C@@H]1C[C@@]2(OC1(C)C)C(=O)CC[C@@]2(C)O`: the IC50 in test [1] was 46.3 µM. Take `CC[C@]1(O)C(=O)O[C@H]2[C@H]1[C@H](OC(C)=O)C/C(C)=C/CC[C@@]1(C)O[C@@H]21`: the values for the IC50 in the test on A549 and with MCF7 were > 200 µM and 45.7 µM, respectively. Turning to `COc1cccc2c1C(=O)c1c(O)c3c(c(O)c1C2=O)C[C@@](O)(C(=O)CO)C[C@@H]3O[C@H]1C[C@H](N)[C@H](O)[C@H](C)O1` [DOXORUBICIN], the IC50 in the test with A549 was 0.21 µM. With `C=C1C(=O)O[C@H]2[C@H]1[C@H](OC(C)=O)C/C(C)=C/CC[C@@]1(C)O[C@@H]21`, the IC50 in the test with A549 stood at 7.3 µM; with MCF7 it was 1.5 µM.

A word on the IC50: it is the point on the concentration scale where inhibition reaches its midpoint.
